In paper PMC5291322, “Development of Cell‐Permeable, Non‐Helical Constrained Peptides to Target a Key Protein–Protein Interaction in Ovarian Cancer” (Angewandte Chemie (International Ed. in English), 2016):
Non-standard residues stand in square brackets, D forms with d. Residues, ends and D or L forms follow the SMILES beside them. *: point of attachment. 5TAMRA = CN(C)c1ccc2c(c1)Oc1cc(N(C)C)ccc1C21OC(=O)c2cc(C(=O)*)ccc21; Dap(N3) = [N-]=[N+]=NC[C@H](N)C(=O)O; Aha = [N-]=[N+]=NCC[C@H](N)C(=O)O; Ahx = NCCCCCC(=O)O

Tests used:
[1] = target: T1, mImportin α1 ΔIBB (Mus musculus, UniProt P52293); assay: Direct fluorescence polarisation (FP) binding assay; settings: 60 nM TAMRA-labelled peptide, 15-point 2.0-fold serial dilutions of mImportin α1 ΔIBB, 20 mM HEPES pH 8, 200 mM NaCl, 15 min at room temperature, ex 540/em 590 nm, one-site model, triplicates, read-out: Kd, direct FP assay binding affinity
T1 construct: made in house; host or cells: E. coli BL21 (DE3) CodonPlus-RIL
Protocol: The unconstrained peptides Pep1 and Pep2, as well as four constrained peptides, were synthesized. Their binding affinities for mImportin α1 ΔIBB were evaluated in fluorescence polarization assays (Figure 5 C). […]
Direct Fluorescence Polarisation Assay
Dissociation constants (Kd) for the interaction of TAMRA-5-labelled stapled peptides with mImportin α1 ΔIBB were determined by direct fluorescence polarisation (FP) measurement. TAMRA-5 belongs to the family of rhodamine dyes and has been used extensively for the study of PPIs and DNA-protein interactions by FP assays.[31-32] The mImportin α1 ΔIBB isoform was used since it is well characterised and has been used previously.[33] A one-site binding model was assumed with mImportin α1. mImportin α1 ΔIBB protein was purified in FP buffer (20 mM HEPES (pH 8), 200 mM NaCl) and 1 mM stock solutions of peptides were made up in FP buffer with 3 % v/v DMSO. Accurate mImportin α1 ΔIBB and stapled peptide concentrations were determined by amino acid analysis (PNAC facilities, Department of Biochemistry, University of Cambridge). 15-point dose-response curves were constructed using 2.0-fold serial dilutions of mImportin α1 ΔIBB in a mixture with a final concentration of 60 nM TAMRA-labelled peptide. 20 μL reaction volumes were pipetted into […] black polystyrene assay plates (Corning 384 Well Low Flange Black Flat

[2] = system: JHOC9 cells; assay: Cell permeability assay, live-cell confocal fluorescence microscopy; assay type: cell-based; settings: 10 μM TAMRA-labelled peptide in medium, 2 h incubation, Hoechst 33342 in the final 30 min, PBS wash, TAMRA fluorescence read-out, qualitative
Source text: Live‐cell fluorescence microscopy studies were undertaken to assess the cell permeability of the synthesized TAMRA‐labelled linear and constrained peptides (Figure 7).
Figure 7 Cell‐permeability studies for the linear and constrained peptides using JHOC9 cells. Images were taken on a Leica tandem confocal microscope using a 40 X objective.
HEK293T cells were cultivated in Dulbecco’s Modified Eagle medium (DMEM) (1X) supplemented with 5 % foetal bovine serum (FBS) (Invitrogen) and 0.5 % penicillin/streptomycin (P/S). CCC cell lines PEO1, JHOC5, JHOC7, JHOC9, OVISE, SKOV3 and Normal Ovarian Surface Epithelial (IOSE) cells were grown in RPMI 1640 medium (1X) supplemented with 10 % FBS and 1 % P/S. All cell lines were maintained at 37 °C in 5 % CO2 and were mycoplasma tested on a regular basis (Biorepository Core, CRUK CI, Cambridge). Cell counts were conducted using the Vi-CELL Cell Viability Analyzer. […]
Cell permeability assay and confocal microscopy
Cells were grown in chambered coverslips (μ–Slide 8 Well ibiTreat, Ibidi) for live-cell imaging. When the desired degree of confluency was reached, the medium was replaced with 10 μM solutions of constrained peptides in medium. For live-cell imaging, cells were incubated with the constrained peptide solutions for 2 h and during the final 30 min, Hoechst stain 33342 (1 μM, Thermo Fisher Scientific) was added. Cells were washed with PBS before live-cell imaging. Fresh medium was added and cells were imaged live using a Leica Tandem confocal microscope. Images were generated as a maximum intensity projection of five z-stacked […]
Aldrich, Mission RNAi, TRC2-pLKO-puro Vector) were used. All plasmids were confirmed by restriction digest and agarose gel electrophoresis.
For each transfection sample 16 μg transfer vector, 10.4 μg pMDL/pRRE, 4 μg pRSV-Rev and 5.6 μg pVSV-G were used. Lentiviruses were produced in the HEK293T packaging cell line. The day before transfection, 16 x 10^6 HEK293T cells were plated in […] (Corning) using Opti-MEM reduced-serum medium (30 mL, 1 X, Invitrogen) so that cells were 90–95 % confluent on the day of transfection. After 24 h the medium was removed and replaced with DMEM growth medium (16 mL, Invitrogen) containing serum. For each transfection sample DNA-Lipofectamine complexes were prepared as follows: In a sterile 15 mL tube, 16 μg transfer vector, 10.4 μg pMDL/pRRE, 4 μg pRSV-REV and 5.6 μg pVSV-G were diluted in Opti-MEM medium (5 mL). In a separate sterile 15 mL tube, Lipofectamine 2000 (115 μL, Life Technologies) was diluted in Opti-MEM medium (5 mL). Both solutions were incubated for 5 min at room temperature and then combined.
Incubation for 20 min at room temperature allowed DNA-Lipofectamine complexes to form, which were then added dropwise to each plate of HEK293T cells. […]

Kd [1] | cell permeability [2] | Structure (SMILES)
95.9 ± 27.3 µM |  | CSCC[C@@H]1NC(=O)[C@H](CCCCN)NC(=O)[C@H](CCCCN)NC(=O)[C@@H](NC(=O)[C@@H](NC(=O)CCCCCNC(=O)c2ccc3c(c2)C(=O)OC32c3ccc(N(C)C)cc3Oc3cc(N(C)C)ccc32)[C@@H](C)O)Cn2cc(nn2)CNC(=O)NCc2cn(nn2)C[C@@H](C(=O)N[C@@H](CCCNC(=N)N)C(N)=O)NC(=O)[C@H](CCCNC(=N)N)NC(=O)[C@H](CCCNC(=N)N)NC1=O [Pep1A]
48.2 ± 4.88 µM | retained their cell permeability | CSCC[C@@H]1NC(=O)[C@H](CCCCN)NC(=O)[C@H](CCCCN)NC(=O)[C@@H](NC(=O)[C@@H](NC(=O)CCCCCNC(=O)c2ccc3c(c2)C(=O)OC32c3ccc(N(C)C)cc3Oc3cc(N(C)C)ccc32)[C@@H](C)O)Cn2cc(nn2)CCNC(=O)NCCc2cn(nn2)C[C@@H](C(=O)N[C@@H](CCCNC(=N)N)C(N)=O)NC(=O)[C@H](CCCNC(=N)N)NC(=O)[C@H](CCCNC(=N)N)NC1=O [Pep1B]
55.9 ± 2.43 µM |  | CSCC[C@@H]1NC(=O)[C@H](CCCCN)NC(=O)[C@H](CCCCN)NC(=O)[C@@H](NC(=O)[C@@H](NC(=O)CCCCCNC(=O)c2ccc3c(c2)C(=O)OC32c3ccc(N(C)C)cc3Oc3cc(N(C)C)ccc32)[C@@H](C)O)Cn2cc(nn2)CCCNC(=O)NCCCc2cn(nn2)C[C@@H](C(=O)N[C@@H](CCCNC(=N)N)C(N)=O)NC(=O)[C@H](CCCNC(=N)N)NC(=O)[C@H](CCCNC(=N)N)NC1=O [Pep1C]
2.06 ± 0.07 µM | good cell permeability | CSCC[C@H](NC(=O)[C@H](CCCCN)NC(=O)[C@H](CCCCN)NC(=O)[C@H](CN=[N+]=[N-])NC(=O)[C@@H](NC(=O)CCCCCNC(=O)c1ccc2c(c1)C(=O)OC21c2ccc(N(C)C)cc2Oc2cc(N(C)C)ccc21)[C@@H](C)O)C(=O)N[C@@H](CCCNC(=N)N)C(=O)N[C@@H](CCCNC(=N)N)C(=O)N[C@@H](CN=[N+]=[N-])C(=O)N[C@@H](CCCNC(=N)N)C(N)=O [Pep1] ({5TAMRA-Ahx}-T[Dap(N3)]KKMRR[Dap(N3)]R-NH2)
4.54 µM | retained their cell permeability | CSCC[C@@H]1NC(=O)[C@H](CCCCN)NC(=O)[C@H](CCCCN)NC(=O)[C@@H](NC(=O)[C@@H](NC(=O)CCCCCNC(=O)c2ccc3c(c2)C(=O)OC32c3ccc(N(C)C)cc3Oc3cc(N(C)C)ccc32)[C@@H](C)O)CCn2cc(nn2)CNC(=O)NCc2cn(nn2)CC[C@@H](C(=O)N[C@@H](CCCNC(=N)N)C(N)=O)NC(=O)[C@H](CCCNC(=N)N)NC(=O)[C@H](CCCNC(=N)N)NC1=O [Pep2A]
6.84 ± 0.26 µM | good cell permeability | CSCC[C@H](NC(=O)[C@H](CCCCN)NC(=O)[C@H](CCCCN)NC(=O)[C@H](CCN=[N+]=[N-])NC(=O)[C@@H](NC(=O)CCCCCNC(=O)c1ccc2c(c1)C(=O)OC21c2ccc(N(C)C)cc2Oc2cc(N(C)C)ccc21)[C@@H](C)O)C(=O)N[C@@H](CCCNC(=N)N)C(=O)N[C@@H](CCCNC(=N)N)C(=O)N[C@@H](CCN=[N+]=[N-])C(=O)N[C@@H](CCCNC(=N)N)C(N)=O [Pep2] ({5TAMRA-Ahx}-T[Aha]KKMRR[Aha]R-NH2)

Structure (SMILES) | Kd [1] | cell permeability [2]
CN(C)c1ccc2c(-c3ccc(C(=O)O)cc3C(=O)[O-])c3ccc(N(C)C)cc3[o+]c2c1 [TAMRA-5, 5-CARBOXYTETRAMETHYLRHODAMINE, reference compound] | ~122 µM | 
